± gives the expanded uncertainty stated by the source.
test: molar enthalpy of vaporization or sublimation; conditions: 298.15 K; Crystal; Static calorimetry

molar enthalpy [kcal/mol]	Compound
22.6 ± 0.43	COc1ccc(O)cc1 [4-methoxyphenol]
24.2 ± 0.717	COc1cc(O)cc(OC)c1 [3,5-dimethoxyphenol]
23.5 ± 0.43	COc1cccc(OC)c1O [1,3-dimethoxy-2-hydroxybenzene]

same assay, conditions: 298.15 K; Liquid; Static calorimetry

molar enthalpy [kcal/mol]	Compound
18.3 ± 0.406	COc1cccc(O)c1OC [2,3-dimethoxyphenol]
18.1 ± 0.43	COc1cccc(O)c1 [3-methoxyphenol]
15 ± 0.263	COc1ccccc1O [2-methoxyphenol]

— the NIST ThermoML archive (doi:10.1021/je025641j)
